Patent US20250177579A1, “NOVEL COMPOUND, a-SYNUCLEIN AGGREGATE BINDER, AND USE THEREOF” (NATIONAL INSTITUTES FOR QUANTUM SCIENCE AND TECHNOLOGY, priority 2022, published 2025)

Tests used:
[1] = system: tau aggregates or amyloid-β aggregates; experiment: In vitro fluorescence microscope measurement, AD patient brain sections compared with DLB sections; type: binding, human; conditions: for binding to α-synuclein aggregates compared with binding to tau aggregates or amyloid-β aggregates formed in the brain of the AD patient: 30 μmol/l test compound, DLB amygdala vs AD superior temporal gyrus sections; for ratio of binding to α-synuclein aggregates to binding to tau aggregates or amyloid-β aggregates, compared with the ratio of C05-05: 30 μmol/l, fluorescence intensity quantified, FIG. 2, comparator C05-05
Excerpt: (§1) Postmortem human brains were obtained in autopsies carried out with respect to a patient with dementia with Lewy bodies (DLB) and a patient with Alzheimer's disease (AD). In a cryostat (HM560, Carl Zeiss), frozen tissue from the DLB patient was sliced into sections each having a thickness of 20 μm. Brain tissue from the AD patient was fixed in 10% neutral buffered formalin, embedded in a paraffin block, and sliced into sections each having a thickness of 6 μm.
(§2) Each brain section and a 30 μmol/l test compound were incubated in a 50% ethanol solution at room temperature for 30 minutes. Subsequently, the sections were rinsed with 50% ethanol for 5 minutes and dipped into double-distilled water twice for 3 minutes each. After the section was mounted in a mounting medium (VECTASHIELD H-1000, Vector Laboratories), an image of a lesion-enriched area on the section was obtained with use of a fluorescence microscope (DM4000, Leica). In FIG. 1, each arrowhead indicates fluorescence from the compound binding to α-synuclein aggregates in the brain of the DLB patient, each arrow indicates fluorescence from the compound binding to amyloid-β aggregates in the brain of the AD patient, and an asterisk indicates fluorescence from the compound binding to tau aggregates in the brain of the AD patient. The fluorescence intensities of lesion-enriched areas and lesion-free areas (background) were quantified with use of analysis software (Image J). Note that SPAL-T-83, SPAL-T-95, and SPAL-E-17 were each used as the test compound. Note also that ((E)-1-fluoro-3-(2-(4-(6-(methylamino)pyridin-3-yl)but-1-en-3-ynyl)benzo[d]thiazol-6-yloxy)propan-2-ol (C05-05) synthesized by the method disclosed in Synthetic Example 21 of Patent Literature 2 (International Publication No. WO 2020/174963) listed above was used as a control compound.

[2] = biological target: T1, phosphorylated α-synuclein (Mus musculus, UniProt O55042); experiment: In vitro fluorescence microscope measurement, brain sections of α-synuclein fibril-inoculated mouse; type: binding; conditions: 30 μmol/l test compound, 20% ethanol, co-stained with pS129 antibody, FIG. 3
T1 construct: from tissue; host or cells: brain of a C57/BL/6 mouse inoculated in the striatum with recombinant mouse α-synuclein fibrils (made in E. coli)
Description: When mouse α-synuclein is expressed in and extracted from E. coli as a recombinant protein and then incubated in vitro, insoluble α-synuclein aggregates are formed. By inoculating these α-synuclein aggregates into the striatum of a mouse, the α-synuclein aggregates propagate to surrounding areas via the neural circuitry, and an α-synuclein lesion is observed in the cerebral neocortex several months later (Masuda-Suzukake et al. Acta Neuropathol Commun 2, 88, 2014; Shimozawa et al. Acta Neuropathol Commun 5, 12, 2017). By extracting the brain of this mouse, preparing a section, and then analyzing the section by fluorescent staining, it is possible to examine whether the compound in accordance with an embodiment of the present invention binds to a lesion caused by phosphorylated α-synuclein.
First, mouse α-synuclein was expressed in and extracted from E. coli as a recombinant protein, and then incubated in vitro to form insoluble α-synuclein aggregates. The α-synuclein aggregates were then inoculated into the striatum of a mouse. […] Note that the inoculation of the α-synuclein aggregates into the striatum of the mouse was carried out in the following manner. […]
The brain of this α-synuclein fibril-inoculated mouse was extracted, and then sections were prepared. The sections were analyzed by fluorescent staining. […] After the section was mounted in a mounting medium (VECTASHIELD H-1000), an image of an α-synuclein aggregate-enriched area on the section was obtained with use of a fluorescence microscope (DM4000). […] After the section was subjected to immunohistochemical staining with use of an anti-phosphorylated α-synuclein monoclonal antibody (pS129, abcam, ab59264) (1:1000) and then mounted in a mounting medium (VECTASHIELD H-1000), an image of the same area as above was obtained with use of a fluorescence microscope (DM4000). […] In FIG. 3, each arrowhead indicates a lesion, caused by phosphorylated α-synuclein, in the brain of the α-synuclein fibril-inoculated mouse and fluorescence from the compound binding to the phosphorylated α-synuclein.

[3] = biological target: T2, α-synuclein lesions (Mus musculus, UniProt O55042); experiment: In vivo two-photon laser scanning fluorescence microscopy of α-synuclein fibril-inoculated mouse; conditions: 50 μl of 0.1% DMSO solution, imaging 30 minutes after administration, FIG. 4; for binding to α-synuclein lesions in vivo: excitation 900 nm
T2 construct: from tissue; host or cells: brain of a C57/BL/6 mouse inoculated in the striatum with recombinant mouse α-synuclein fibrils (made in E. coli)
Description: First, mouse α-synuclein was expressed in and extracted from E. coli as a recombinant protein, and then incubated in vitro to form insoluble α-synuclein aggregates. The α-synuclein aggregates were then inoculated into the striatum of a mouse. […] Note that the inoculation of the α-synuclein aggregates into the striatum of the mouse was carried out in the following manner. First, hair on the head of a 9-week-old C57/BL/6 male mouse which had been anesthetized with 1.5% (v/v) isoflurane was removed, and the scalp was disinfected with isodine, followed by application of xylocaine and incision in the scalp to expose the skull. Then, a hole was drilled in the skull at a position of 0.05 mm posterior to the bregma and 2 mm lateral to the midline, and 3 μl of an α-synuclein fibril solution (mouse α-synuclein fibril (4 mg/ml) in saline) was injected into a position 2 mm ventral to the brain surface with use of a glass pipette. The scalp was then returned and sutured.
A model mouse was anesthetized with 1.5% (v/v) isoflurane 4 or more months after inoculation of an α-synuclein fibril solution. Then, a cranial window was placed on the model mouse in accordance with the Seylaz-Tomita method (Tomita et al. J Cereb Blood Flow Metab 25, 858-67, 2005). Two or more weeks after the placement of the cranial window, the mouse was fixed under a two-photon laser fluorescence microscope, 100 μl of physiological saline containing 5 mmol/1 Sulforhodamine 101 was intraperitoneally administered to the mouse, and then intravital two-photon fluorescence imaging was carried out at an excitation wavelength of 900 nm. Thereafter, 50 μl of DMSO solution containing C05-05, SPAL-T-83, SPAL-T-95, or SPAL-E-17 at a 0.1% concentration was intraperitoneally administered to the mouse. Thirty minutes after the administration, intravital two-photon fluorescence imaging was carried out at an excitation wavelength of 900 nm. Detection wavelengths for C05-05, SPAL-T-83, SPAL-T-95, and SPAL-E-17 were set at 500 nm to 550 nm, and a detection wavelength for Sulforhodamine 101 was set at 573 nm to 648 nm. In FIG. 4, each arrow indicates a blood vessel, and each arrowhead indicates fluorescence from the compound binding to an α-synuclein lesion.

[4] = biological target: T3, α-synuclein aggregates (Homo sapiens, UniProt P37840); experiment: In vitro fluorescence microscope measurement, DLB patient brain sections; type: binding; design: from tissue; host or cells: amygdala sections of a DLB patient's postmortem brain; conditions: 30 μmol/l test compound, 50% ethanol, amygdala sections of DLB patient, FIGS. 1 and 2
Excerpt: as §1, §2

[5] = biological target: T3, α-synuclein aggregates; conditions: background art, cited from earlier work

Row | Structure (SMILES) | binding to α-synuclein aggregates compared with binding to tau aggregates or amyloid-β aggregates formed in the brain of the AD patient [1] | ratio of binding to α-synuclein aggregates to binding to tau aggregates or amyloid-β aggregates, compared with the ratio of C05-05 [1] | binding to a lesion caused by phosphorylated α-synuclein [2] | delivery into the brain and neurons of the living body [3] | binding to α-synuclein lesions in vivo [3] | binding to α-synuclein aggregates formed in the brain of the DLB patient (fluorescence) [4] | binding selectivity with respect to the α-synuclein aggregates ([5]; binds to amyloid-β aggregates) | binding affinity with respect to the α-synuclein aggregates [5]
1 | CNc1cnc(C#C/C=C/c2nc3ccc(NCC(O)CF)cc3s2)cn1 (stereo not shown) [SPAL-T-83, (E)-1-fluoro-3-((2-(4-(5-(methylamino)pyrazin-2-yl)but-1-en-3-yn-1-yl)benzo[d]thiazol-6-yl)amino)propan-2-ol] | greater | higher | bound to a lesion caused by phosphorylated α-synuclein | delivered into the brain and further into neurons of the living body | bound to α-synuclein lesions | bound to α-synuclein aggregates |  | 
2 | CNc1cnc(C#C/C=C/c2nc3ccc(OCC(O)CF)nc3s2)cn1 (stereo not shown) [SPAL-E-17, (E)-1-fluoro-3-((2-(4-(5-(methylamino)pyrazin-2-yl)but-1-en-3-yn-1-yl)thiazolo[5,4-b]pyridin-5-yl)oxy)propan-2-ol] | greater | higher | bound to a lesion caused by phosphorylated α-synuclein | delivered into the brain and further into neurons of the living body | bound to α-synuclein lesions | bound to α-synuclein aggregates |  | 
3 | CN([11CH3])c1ncc(/C=C/c2nc3ccc(OCCF)cc3o2)s1 [[^11C]BF-227] |  |  |  |  |  |  | low binding selectivity | insufficient binding affinity
4 | CNc1ccc(C#C/C=C/c2nc3ccc(NCC(O)CF)cc3s2)cn1 (stereo not shown) [SPAL-T-95, (E)-1-fluoro-3-((2-(4-(6-(methylamino)pyridin-3-yl)but-1-en-3-yn-1-yl)benzo[d]thiazol-6-yl)amino)propan-2-ol] | greater | higher | bound to a lesion caused by phosphorylated α-synuclein | delivered into the brain and further into neurons of the living body | bound to α-synuclein lesions | bound to α-synuclein aggregates |  | 
5 | CNc1ccc(C#C/C=C/c2nc3ccc(OCC(O)CF)cc3s2)cn1 (stereo not shown) [Compound C05-05, reference compound] |  |  |  | delivered into the brain and further into neurons of the living body | bound to α-synuclein lesions |  |  | 
